Experimental data reported in ChEMBL document CHEMBL3813604, “Two pairs of farnesyl phenolic enantiomers as natural nitric oxide inhibitors from Ganoderma sinense” (Bioorg Med Chem Lett, 2016).

Test system: RAW264.7
Test: Antiinflammatory activity in mouse RAW264.7 cells assessed as inhibition of LPS-induced nitric oxide production after 24 hrs by Griess assay
Type: functional, cell-based
Conditions: RAW264.7, 24 h

IC50	Compound
1150 nM	C/C(=C\CC/C(=C/CCC1=C[C@@H](c2cc(O)ccc2O)OC1=O)CO)COC(=O)/C=C/c1ccc(O)cc1
2260 nM	CO[C@]1(c2cc(O)cc(O)c2)C=C(CC/C=C(\CO)CC/C=C(\C)COC(=O)/C=C/c2ccc(O)cc2)C(=O)O1
1510 nM	CO[C@@]1(c2cc(O)cc(O)c2)C=C(CC/C=C(\CO)CC/C=C(\C)COC(=O)/C=C/c2ccc(O)cc2)C(=O)O1
1420 nM	C/C(=C\CC/C(=C/CCC1=C[C@H](c2cc(O)ccc2O)OC1=O)CO)COC(=O)/C=C/c1ccc(O)cc1
58800 nM	C[C@]12CCC(=O)C=C1CC[C@@H]1[C@@H]2[C@@H](O)C[C@@]2(C)[C@H]1CC[C@]2(O)C(=O)CO [HYDROCORTISONE]
